# Measured values taken from patent US20150322067A1, “NITROGEN CONTAINING COMPOUNDS AND THEIR USE” (priority 2011, published 2015).
# Like-named read-outs stand apart in the source and are kept apart here.
# Columns and labels:
# Assay in all cases: Agar dilution MIC (CLSI), beta-lactam with or without beta-lactamase inhibitor
# Format in all cases: cell-based
# A. baumanni NCTC 13304 = conditions: Class D ESBL strain; for MIC of Ceftazidime + inhibitor: Ceftazidime in combination with inhibitor at 4 mcg/ml; for MIC of Meropenem + inhibitor: Meropenem in combination with inhibitor at 4 mcg/ml
# Method: (§1) The biological activity of representative compounds of the invention against various bacterial strains (in combination with another antibacterial agent) was investigated. In a typical study, overnight grown bacterial cultures were diluted appropriately and inoculated on the agar media containing doubling dilutions of the antibiotics. Observation for growth or no growth was performed after 16-20 hours of incubation at 35±2° C. in ambient air. The overall procedure was performed as per Clinical and Laboratory Standards Institute (CLSI) recommendations (Clinical and Laboratory Standards Institute (CLSI), performance Standards for Antimicrobial Susceptibility Testing, 20th Informational Supplement, M 100-S20, Volume 30, No. 1, 2010). Table 1 details potencies of ceftazidime in combination of representative compound according to the invention (compound of formula (I) wherein M is sodium) against various MDR (Multi Drug Resistant) Gram-negative strains producing Class A, C and D beta-lactamase enzymes. The activities are expressed as MICs (mcg/ml). For comparison, the activity of various other known beta-lactamase inhibitors such as clavulanic acid, tazobactam, MK-7655, and NXL-104 are also provided.
# (§2) Table 2 details data corresponding to a combination of Meropenem with a compound of Formula (I), wherein M is sodium, against Class D ESBL producing strains. Class D ESBLs producing pathogens that confer a high degree of resistance to carbapenems are a therapeutic problem in the clinical settings since extremely limited treatment options are available to treat them.
# A. baumanni NCTC 13301 = conditions: Class D ESBL strain; for MIC of Ceftazidime + inhibitor: Ceftazidime in combination with inhibitor at 4 mcg/ml; for MIC of Meropenem + inhibitor: Meropenem in combination with inhibitor at 4 mcg/ml
# Method: as §1, §2
# A. baumanni NCTC 13305 = conditions: Class D ESBL strain; for MIC of Ceftazidime + inhibitor: Ceftazidime in combination with inhibitor at 4 mcg/ml; for MIC of Meropenem + inhibitor: Meropenem in combination with inhibitor at 4 mcg/ml
# Method: as §1, §2
# E. coli B 89 = conditions: Class C ESBL strain; for MIC of Ceftazidime + inhibitor: Ceftazidime in combination with inhibitor at 4 mcg/ml
# Method: as §1
# E. coli NCTC 13352 = conditions: Class A ESBL strain; for MIC of Ceftazidime + inhibitor: Ceftazidime in combination with inhibitor at 4 mcg/ml
# Method: as §1
# [1] = system: K. pneumoniae ATCC 700603; conditions: Class A ESBL strain; for MIC of Ceftazidime + inhibitor: Ceftazidime in combination with inhibitor at 4 mcg/ml
# Method: as §1
# E. coli NCTC 13351 = conditions: Class A ESBL strain; for MIC of Ceftazidime + inhibitor: Ceftazidime in combination with inhibitor at 4 mcg/ml
# Method: as §1
# E. coli 7 MP = conditions: Class C ESBL strain; for MIC of Ceftazidime + inhibitor: Ceftazidime in combination with inhibitor at 4 mcg/ml
# Method: as §1
# E. coli M 50 = conditions: Class C ESBL strain; for MIC of Ceftazidime + inhibitor: Ceftazidime in combination with inhibitor at 4 mcg/ml
# Method: as §1
# [2] = Meropenem alone, read-out: MIC of Meropenem, Control
# [3] = Ceftazidime alone, read-out: MIC of Ceftazidime, Control
Structure (SMILES),MIC of Ceftazidime + inhibitor (A. baumanni NCTC 13304) [µg/mL],MIC of Meropenem + inhibitor (A. baumanni NCTC 13304) [µg/mL],MIC of Ceftazidime + inhibitor (A. baumanni NCTC 13301) [µg/mL],MIC of Meropenem + inhibitor (A. baumanni NCTC 13301) [µg/mL],MIC of Ceftazidime + inhibitor (A. baumanni NCTC 13305) [µg/mL],MIC of Meropenem + inhibitor (A. baumanni NCTC 13305) [µg/mL],MIC of Ceftazidime + inhibitor (E. coli B 89) [µg/mL],MIC of Ceftazidime + inhibitor (E. coli NCTC 13352) [µg/mL],MIC of Ceftazidime + inhibitor [1] [µg/mL],MIC of Ceftazidime + inhibitor (E. coli NCTC 13351) [µg/mL],MIC of Ceftazidime + inhibitor (E. coli 7 MP) [µg/mL],MIC of Ceftazidime + inhibitor (E. coli M 50) [µg/mL],also measured
"N#C[C@@H]1CC[C@@H]2CN1C(=O)N2OS(=O)(=O)[O-].[Na+] [Sodium salt of trans-7-oxo-6-(sulphoxy)-1,6-diazabicyclo[3.2.1]-octane-2-carbonitrile]",32,2,32,4,16,2,1,0.5,0.5,0.5,2,1,–
NC(=O)[C@@H]1CC[C@@H]2CN1C(=O)N2OS(=O)(=O)O [NXL104],32,16,>32,16,16,8,1,0.5,0.5,0.5,4,1,–
C[C@@H](O)[C@H]1C(=O)N2C(C(=O)O)=C(S[C@@H]3CN[C@H](C(=O)N(C)C)C3)[C@H](C)[C@H]12 [Meropenem],–,–,–,–,–,–,–,–,–,–,–,–,MIC (A. baumanni NCTC 13304; [2]): 32 µg/mL; MIC (A. baumanni NCTC 13301; [2]): 32 µg/mL; MIC (A. baumanni NCTC 13305; [2]): 8 µg/mL
O=C(NC1CCNCC1)[C@@H]1CC[C@@H]2CN1C(=O)N2OS(=O)(=O)O [MK 7655],32,32,>32,32,16,8,4,8,2,2,8,2,–
"C[C@]1(Cn2ccnn2)[C@H](C(=O)O)N2C(=O)C[C@H]2S1(=O)=O [Tazobactam, tazobactam]",>32,32,>32,32,16,8,>32,1,1,0.5,>32,>32,–
"O=C(O)[C@H]1/C(=C/CO)O[C@@H]2CC(=O)N21 [Clavulanic acid, clavulanic acid]",>32,32,>32,32,16,8,>32,0.5,0.5,0.5,>32,>32,–
CC(C)(O/N=C(\C(=O)N[C@@H]1C(=O)N2C(C(=O)[O-])=C(C[n+]3ccccc3)CS[C@H]12)c1csc(N)n1)C(=O)O [Ceftazidime],–,–,–,–,–,–,–,–,–,–,–,–,"MIC (A. baumanni NCTC 13304; [3]): > 32 µg/mL; MIC (A. baumanni NCTC 13301; [3]): > 32 µg/mL; MIC (A. baumanni NCTC 13305; [3]): 16 µg/mL; MIC (E. coli B 89; Escherichia coli, B89, Ceftazidime alone, read-out: MIC of Ceftazidime, Control): > 32 µg/mL; MIC (E. coli NCTC 13352; Escherichia coli, NCTC13352, Ceftazidime alone, read-out: MIC of Ceftazidime, Control): > 32 µg/mL; MIC ([1]; Klebsiella pneumoniae, ATCC700603, Ceftazidime alone, read-out: MIC of Ceftazidime, Control): 32 µg/mL; MIC (E. coli NCTC 13351; Escherichia coli, NCTC13351, Ceftazidime alone, read-out: MIC of Ceftazidime, Control): 32 µg/mL; MIC (E. coli 7 MP; Escherichia coli, 7MP, Ceftazidime alone, read-out: MIC of Ceftazidime, Control): > 32 µg/mL; MIC (E. coli M 50; Escherichia coli, M50, Ceftazidime alone, read-out: MIC of Ceftazidime, Control): > 32 µg/mL"
